# Legend:
# Test in all cases: relative viability (nuclei count vs DMSO), 5 days (fraction); higher = more cells survive
# Tozasertib + Pemetrexed = compound: Cc1cc(Nc2cc(N3CCN(C)CC3)nc(Sc3ccc(NC(=O)C4CC4)cc3)n2)n[nH]1 [Tozasertib] + Nc1nc2[nH]cc(CCc3ccc(C(=O)N[C@@H](CCC(=O)O)C(=O)O)cc3)c2c(=O)[nH]1 [Pemetrexed] (partner 0.2 µM)
# Method in brief: (§1)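 Relative viability was taken as the ratio of nuclei in treated wells to nuclei in vehicle wells. Lung cancer cell lines in 1536-well plates received compounds by pin tool one day after seeding, either one drug alone or a fixed anchor-drug dose plus five library-drug doses (not always all listed) in √10 steps. Nuclei were counted on 4× images after 5 days of treatment, and values are medians of duplicate plates.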
# Tozasertib + Olaparib = compound: Cc1cc(Nc2cc(N3CCN(C)CC3)nc(Sc3ccc(NC(=O)C4CC4)cc3)n2)n[nH]1 [Tozasertib] + O=C(c1cc(Cc2n[nH]c(=O)c3ccccc23)ccc1F)N1CCN(C(=O)C2CC2)CC1 [Olaparib] (partner 8 µM)
# Method in brief: as §1
# Tozasertib + Navitoclax = compound: Cc1cc(Nc2cc(N3CCN(C)CC3)nc(Sc3ccc(NC(=O)C4CC4)cc3)n2)n[nH]1 [Tozasertib] + CC1(C)CCC(c2ccc(Cl)cc2)=C(CN2CCN(c3ccc(C(=O)NS(=O)(=O)c4ccc(N[C@H](CCN5CCOCC5)CSc5ccccc5)c(S(=O)(=O)C(F)(F)F)c4)cc3)CC2)C1 [Navitoclax] (partner 0.5 µM)
# Method in brief: as §1
# Tozasertib + Phenformin = compound: Cc1cc(Nc2cc(N3CCN(C)CC3)nc(Sc3ccc(NC(=O)C4CC4)cc3)n2)n[nH]1 [Tozasertib] + N=C(N)NC(=N)NCCc1ccccc1 [Phenformin] (partner 250 µM)
# Method in brief: as §1
# Tozasertib + Foretinib = compound: Cc1cc(Nc2cc(N3CCN(C)CC3)nc(Sc3ccc(NC(=O)C4CC4)cc3)n2)n[nH]1 [Tozasertib] + COc1cc2c(Oc3ccc(NC(=O)C4(C(=O)Nc5ccc(F)cc5)CC4)cc3F)ccnc2cc1OCCCN1CCOCC1 [Foretinib] (partner 0.25 µM)
# Method in brief: as §1
cell line,measurement,setting,value
HCC-44,relative viability,Tozasertib + Pemetrexed; first compound 0.004 µM,0.677
same,relative viability,Tozasertib + Pemetrexed; first compound 0.01265 µM,0.552
same,relative viability,Tozasertib + Pemetrexed; first compound 0.04 µM,0.604
same,relative viability,Tozasertib + Pemetrexed; first compound 0.1265 µM,0.599
same,relative viability,Tozasertib + Olaparib; first compound 0.004 µM,0.961
same,relative viability,Tozasertib + Olaparib; first compound 0.01265 µM,0.924
same,relative viability,Tozasertib + Olaparib; first compound 0.04 µM,1.02
same,relative viability,Tozasertib + Olaparib; first compound 0.1265 µM,0.914
same,relative viability,Tozasertib + Navitoclax; first compound 0.004 µM,1.04
same,relative viability,Tozasertib + Navitoclax; first compound 0.01265 µM,0.977
same,relative viability,Tozasertib + Navitoclax; first compound 0.04 µM,0.985
same,relative viability,Tozasertib + Navitoclax; first compound 0.1265 µM,0.955
same,relative viability,Tozasertib + Phenformin; first compound 0.004 µM,0.184
same,relative viability,Tozasertib + Phenformin; first compound 0.01265 µM,0.251
same,relative viability,Tozasertib + Phenformin; first compound 0.04 µM,0.184
same,relative viability,Tozasertib + Phenformin; first compound 0.1265 µM,0.104
HCC-78,relative viability,Tozasertib + Pemetrexed; first compound 0.004 µM,0.938
same,relative viability,Tozasertib + Pemetrexed; first compound 0.01265 µM,0.901
same,relative viability,Tozasertib + Pemetrexed; first compound 0.04 µM,0.919
same,relative viability,Tozasertib + Pemetrexed; first compound 0.1265 µM,0.881
same,relative viability,Tozasertib + Foretinib; first compound 0.004 µM,0.678
same,relative viability,Tozasertib + Foretinib; first compound 0.01265 µM,0.708
same,relative viability,Tozasertib + Foretinib; first compound 0.04 µM,0.587
same,relative viability,Tozasertib + Foretinib; first compound 0.1265 µM,0.466
same,relative viability,Tozasertib + Olaparib; first compound 0.004 µM,0.885
same,relative viability,Tozasertib + Olaparib; first compound 0.01265 µM,0.705
same,relative viability,Tozasertib + Olaparib; first compound 0.04 µM,0.98
same,relative viability,Tozasertib + Olaparib; first compound 0.1265 µM,0.758
same,relative viability,Tozasertib + Navitoclax; first compound 0.004 µM,0.822
same,relative viability,Tozasertib + Navitoclax; first compound 0.01265 µM,0.633
same,relative viability,Tozasertib + Navitoclax; first compound 0.1265 µM,0.539
same,relative viability,Tozasertib + Phenformin; first compound 0.004 µM,0.957
same,relative viability,Tozasertib + Phenformin; first compound 0.01265 µM,0.608
same,relative viability,Tozasertib + Phenformin; first compound 0.04 µM,0.699
same,relative viability,Tozasertib + Phenformin; first compound 0.1265 µM,0.525
HCC-366,relative viability,Tozasertib + Pemetrexed; first compound 0.004 µM,0.173
same,relative viability,Tozasertib + Pemetrexed; first compound 0.01265 µM,0.145
same,relative viability,Tozasertib + Pemetrexed; first compound 0.04 µM,0.184
same,relative viability,Tozasertib + Pemetrexed; first compound 0.1265 µM,0.136
same,relative viability,Tozasertib + Foretinib; first compound 0.01265 µM,0.912
same,relative viability,Tozasertib + Foretinib; first compound 0.04 µM,0.63
same,relative viability,Tozasertib + Foretinib; first compound 0.1265 µM,0.0962
same,relative viability,Tozasertib + Olaparib; first compound 0.004 µM,0.333
same,relative viability,Tozasertib + Olaparib; first compound 0.01265 µM,0.333
same,relative viability,Tozasertib + Olaparib; first compound 0.04 µM,0.312
same,relative viability,Tozasertib + Olaparib; first compound 0.1265 µM,0.127
same,relative viability,Tozasertib + Navitoclax; first compound 0.004 µM,1.09
same,relative viability,Tozasertib + Navitoclax; first compound 0.01265 µM,0.945
same,relative viability,Tozasertib + Navitoclax; first compound 0.04 µM,1.17
same,relative viability,Tozasertib + Navitoclax; first compound 0.1265 µM,0.752
same,relative viability,Tozasertib + Phenformin; first compound 0.004 µM,0.629
same,relative viability,Tozasertib + Phenformin; first compound 0.01265 µM,0.56
same,relative viability,Tozasertib + Phenformin; first compound 0.04 µM,0.661
same,relative viability,Tozasertib + Phenformin; first compound 0.1265 µM,0.651
HCC-827,relative viability,Tozasertib + Pemetrexed; first compound 0.004 µM,0.254
same,relative viability,Tozasertib + Pemetrexed; first compound 0.01265 µM,0.239
same,relative viability,Tozasertib + Pemetrexed; first compound 0.04 µM,0.293
same,relative viability,Tozasertib + Pemetrexed; first compound 0.1265 µM,0.262
same,relative viability,Tozasertib + Foretinib; first compound 0.004 µM,0.996
same,relative viability,Tozasertib + Foretinib; first compound 0.01265 µM,1.03
same,relative viability,Tozasertib + Foretinib; first compound 0.04 µM,1.13
same,relative viability,Tozasertib + Foretinib; first compound 0.1265 µM,0.758
same,relative viability,Tozasertib + Olaparib; first compound 0.004 µM,0.684
same,relative viability,Tozasertib + Olaparib; first compound 0.01265 µM,0.577
same,relative viability,Tozasertib + Olaparib; first compound 0.04 µM,0.723
same,relative viability,Tozasertib + Olaparib; first compound 0.1265 µM,0.624
same,relative viability,Tozasertib + Navitoclax; first compound 0.004 µM,0.973
same,relative viability,Tozasertib + Navitoclax; first compound 0.01265 µM,1.09
same,relative viability,Tozasertib + Navitoclax; first compound 0.04 µM,1.03
same,relative viability,Tozasertib + Navitoclax; first compound 0.1265 µM,0.925
same,relative viability,Tozasertib + Phenformin; first compound 0.004 µM,0.384
same,relative viability,Tozasertib + Phenformin; first compound 0.01265 µM,0.403
same,relative viability,Tozasertib + Phenformin; first compound 0.04 µM,0.484
same,relative viability,Tozasertib + Phenformin; first compound 0.1265 µM,0.406
HOP-62,relative viability,Tozasertib + Pemetrexed; first compound 0.004 µM,0.396
same,relative viability,Tozasertib + Pemetrexed; first compound 0.01265 µM,0.299
same,relative viability,Tozasertib + Pemetrexed; first compound 0.04 µM,0.32
same,relative viability,Tozasertib + Pemetrexed; first compound 0.1265 µM,0.362
same,relative viability,Tozasertib + Foretinib; first compound 0.004 µM,0.953
same,relative viability,Tozasertib + Foretinib; first compound 0.01265 µM,1.07
same,relative viability,Tozasertib + Foretinib; first compound 0.04 µM,1.06
same,relative viability,Tozasertib + Foretinib; first compound 0.1265 µM,0.915
same,relative viability,Tozasertib + Olaparib; first compound 0.004 µM,0.699
same,relative viability,Tozasertib + Olaparib; first compound 0.01265 µM,0.436
same,relative viability,Tozasertib + Olaparib; first compound 0.04 µM,0.458
same,relative viability,Tozasertib + Olaparib; first compound 0.1265 µM,0.288
same,relative viability,Tozasertib + Navitoclax; first compound 0.004 µM,1.06
same,relative viability,Tozasertib + Navitoclax; first compound 0.01265 µM,0.946
same,relative viability,Tozasertib + Navitoclax; first compound 0.04 µM,1.08
same,relative viability,Tozasertib + Navitoclax; first compound 0.1265 µM,0.99
same,relative viability,Tozasertib + Phenformin; first compound 0.004 µM,0.732
same,relative viability,Tozasertib + Phenformin; first compound 0.01265 µM,0.578
same,relative viability,Tozasertib + Phenformin; first compound 0.04 µM,0.616
same,relative viability,Tozasertib + Phenformin; first compound 0.1265 µM,0.617
LC-2-ad,relative viability,Tozasertib + Pemetrexed; first compound 0.004 µM,0.291
same,relative viability,Tozasertib + Pemetrexed; first compound 0.01265 µM,0.252
same,relative viability,Tozasertib + Pemetrexed; first compound 0.04 µM,0.265
same,relative viability,Tozasertib + Pemetrexed; first compound 0.1265 µM,0.275
same,relative viability,Tozasertib + Foretinib; first compound 0.004 µM,0.812
same,relative viability,Tozasertib + Foretinib; first compound 0.04 µM,1.04
same,relative viability,Tozasertib + Foretinib; first compound 0.1265 µM,0.609
same,relative viability,Tozasertib + Olaparib; first compound 0.004 µM,0.732
same,relative viability,Tozasertib + Olaparib; first compound 0.01265 µM,0.677
same,relative viability,Tozasertib + Olaparib; first compound 0.04 µM,0.602
same,relative viability,Tozasertib + Olaparib; first compound 0.1265 µM,0.608
same,relative viability,Tozasertib + Navitoclax; first compound 0.004 µM,0.412
same,relative viability,Tozasertib + Navitoclax; first compound 0.01265 µM,0.431
same,relative viability,Tozasertib + Navitoclax; first compound 0.04 µM,0.396
same,relative viability,Tozasertib + Navitoclax; first compound 0.1265 µM,0.147
same,relative viability,Tozasertib + Phenformin; first compound 0.004 µM,0.618
same,relative viability,Tozasertib + Phenformin; first compound 0.01265 µM,0.548
same,relative viability,Tozasertib + Phenformin; first compound 0.04 µM,0.514
same,relative viability,Tozasertib + Phenformin; first compound 0.1265 µM,0.299
LCLC-103H,relative viability,Tozasertib + Pemetrexed; first compound 0.004 µM,0.482
same,relative viability,Tozasertib + Pemetrexed; first compound 0.01265 µM,0.46
same,relative viability,Tozasertib + Pemetrexed; first compound 0.04 µM,0.444
same,relative viability,Tozasertib + Pemetrexed; first compound 0.1265 µM,0.45
same,relative viability,Tozasertib + Foretinib; first compound 0.004 µM,0.81
same,relative viability,Tozasertib + Foretinib; first compound 0.01265 µM,0.78
same,relative viability,Tozasertib + Foretinib; first compound 0.04 µM,0.713
same,relative viability,Tozasertib + Foretinib; first compound 0.1265 µM,0.416
same,relative viability,Tozasertib + Olaparib; first compound 0.004 µM,0.782
same,relative viability,Tozasertib + Olaparib; first compound 0.01265 µM,0.811
same,relative viability,Tozasertib + Olaparib; first compound 0.04 µM,0.772
same,relative viability,Tozasertib + Olaparib; first compound 0.1265 µM,0.734
same,relative viability,Tozasertib + Phenformin; first compound 0.004 µM,0.373
same,relative viability,Tozasertib + Phenformin; first compound 0.01265 µM,0.343
same,relative viability,Tozasertib + Phenformin; first compound 0.04 µM,0.323
same,relative viability,Tozasertib + Phenformin; first compound 0.1265 µM,0.359

# — the supplement of paper PMC10307832
